Tested on: retinal neovascularization
Assay: rat pup model of retinopathy of prematurity (oxygen-induced retinopathy)
Assay type: in vivo
Settings: for inhibition of retinal neovascularization: newborn rat pups exposed to varying oxygen
Procedure: Anecortave acetate was tested for its angiostatic efficacy in a rat pup model of retinopathy of prematurity (Penn, at al., Investigative Ophthalmology & Visual Science, “The Effect of an Angiostatic Steroid on Neovascularization in a Rat Model of Retinopathy of Prematurity,” Vol. 42(1):283-290, January 2001). Newborn rat pups were placed in an atmosphere of varying oxygen content. The rats received a single intravitreal injection of vehicle or anecortave acetate (500 μg) upon return to room air (day 14) or 2 days later (day 16). There was significant retinal neovascularization in the rats that received vehicle injections.

Question: Which “preretinal neovascularization (neovascular score)” value (local administration, rat model of oxygen-induced retinopathy, FIG. 1) does the source give for `CC(=O)OCC(=O)[C@@]1(O)CC[C@H]2[C@@H]3CCC4=CC(=O)CC[C@]4(C)C3=CC[C@@]21C` [Anecortave acetate, 4,9(11)-pregnadien-17α,21-diol-3,20dione-21-acetate] here?
Answer: inhibits preretinal neovascularization

Question: What about the “inhibition of retinal neovascularization” value (single intravitreal injection 500 μg 2 days after return to room air (day 16)) of the same compound?
Answer: 50%

Question: And the “inhibition of retinal neovascularization” value (single intravitreal injection 500 μg upon return to room air (day 14))?
Answer: 66%

From patent US20070043006A1, “Formulations of non-steroidal anti-inflammatory agents to treat pathologic ocular angiogenesis” (priority 2003, published 2007)
